From the supplement of paper PMC10307832 come the findings set out here.

Assay in all cases: relative viability (nuclei count vs DMSO), 5 days (fraction); higher = more cells survive
Compound in assay [1]: CC1=C(C=CC(=C1)[N+](=O)[O-])NS(=O)(=O)C2=C(C=CC(=C2)Cl)Cl [FH535] + Cc1nc(Nc2ncc(C(=O)Nc3c(C)cccc3Cl)s2)cc(N2CCN(CCO)CC2)n1 [Dasatinib] (partner 0.075 µM)
A digest of the protocol:
(§1)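 Relative viability was taken as the ratio of nuclei in treated wells to nuclei in vehicle wells. Lung cancer cell lines in 1536-well plates received compounds by pin tool one day after seeding, either one drug alone or a fixed anchor-drug dose plus five library-drug doses (not always all listed) in √10 steps. Nuclei were counted on 4× images after 5 days of treatment, and values are medians of duplicate plates.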

Compound in assay [2]: CC1=C(C=CC(=C1)[N+](=O)[O-])NS(=O)(=O)C2=C(C=CC(=C2)Cl)Cl [FH535] + CC1(C)CCC(c2ccc(Cl)cc2)=C(CN2CCN(c3ccc(C(=O)NS(=O)(=O)c4ccc(N[C@H](CCN5CCOCC5)CSc5ccccc5)c(S(=O)(=O)C(F)(F)F)c4)cc3)CC2)C1 [Navitoclax] (partner 0.5 µM)
An outline of the steps: as §1

Compound in assay [3]: CC1=C(C=CC(=C1)[N+](=O)[O-])NS(=O)(=O)C2=C(C=CC(=C2)Cl)Cl [FH535] + COc1cc2c(Oc3ccc(NC(=O)C4(C(=O)Nc5ccc(F)cc5)CC4)cc3F)ccnc2cc1OCCCN1CCOCC1 [Foretinib] (partner 0.25 µM)
An outline of the steps: as §1

Compound in assay [4]: CC1=C(C=CC(=C1)[N+](=O)[O-])NS(=O)(=O)C2=C(C=CC(=C2)Cl)Cl [FH535] + O=C(c1cc(Cc2n[nH]c(=O)c3ccccc23)ccc1F)N1CCN(C(=O)C2CC2)CC1 [Olaparib] (partner 8 µM)
An outline of the steps:
as §1

Compound in assay [5]: CC1=C(C=CC(=C1)[N+](=O)[O-])NS(=O)(=O)C2=C(C=CC(=C2)Cl)Cl [FH535] + Nc1ncn([C@H]2C[C@H](O)[C@@H](CO)O2)c(=O)n1 [Decitabine] (partner 2 µM)
An outline of the steps:
as §1

On to 201T, for which the relative viability in assay [1] (first compound 0.04 µM) is 0.555; in assay [1] (first compound 0.1265 µM) it was 0.568; in assay [1] (first compound 0.4 µM), 0.437; in assay [1] (first compound 1.265 µM) it was 0.442; in assay [2] (first compound 0.04 µM), 1.2; in assay [2] (first compound 0.1265 µM), 1.19. Moreover, the relative viability in assay [2] (first compound 0.4 µM) is 1.18; in assay [2] (first compound 1.265 µM), 1.16; in assay [3] (first compound 0.04 µM) it was 0.987; in assay [3] (first compound 0.1265 µM), 1.15; in assay [3] (first compound 0.4 µM) it was 1.11; in assay [3] (first compound 1.265 µM), 1.02. The relative viability in assay [4] (first compound 0.04 µM) amounted to 0.812; in assay [4] (first compound 0.1265 µM), 0.856; in assay [4] (first compound 0.4 µM) it was 0.827; in assay [4] (first compound 1.265 µM), 0.59; in assay [5] (first compound 0.04 µM) it was 0.824; in assay [5] (first compound 0.1265 µM), 0.842. For the same cell line, the relative viability stood at 0.872 in assay [5] (first compound 0.4 µM) and 0.652 in assay [5] (first compound 1.265 µM).

With NCI-H1915, the relative viability in assay [1] (first compound 0.04 µM) came out at 0.292; in assay [1] (first compound 0.1265 µM), 0.306; in assay [1] (first compound 0.4 µM) it was 0.287; in assay [1] (first compound 1.265 µM), 0.3; in assay [2] (first compound 0.04 µM), 0.745; in assay [2] (first compound 0.1265 µM), 0.822. Besides, the relative viability was 0.777 in assay [2] (first compound 0.4 µM); 0.69 in assay [2] (first compound 1.265 µM); 1.11 in assay [3] (first compound 0.04 µM); 1.08 in assay [3] (first compound 0.1265 µM); 1.01 in assay [3] (first compound 0.4 µM); 0.738 in assay [3] (first compound 1.265 µM). Also, the relative viability in assay [4] (first compound 0.04 µM) is 0.208; in assay [4] (first compound 0.1265 µM) it was 0.286; in assay [4] (first compound 0.4 µM), 0.242; in assay [4] (first compound 1.265 µM) it was 0.236; in assay [5] (first compound 0.04 µM), 0.243; in assay [5] (first compound 0.1265 µM) it was 0.252. Also, the relative viability in assay [5] (first compound 0.4 µM) was found to be 0.263; in assay [5] (first compound 1.265 µM), 0.265.

In the case of BEN, the relative viability in assay [1] (first compound 0.04 µM) stood at 0.247; in assay [1] (first compound 0.1265 µM), 0.351; in assay [1] (first compound 0.4 µM), 0.258; in assay [1] (first compound 1.265 µM) it was 0.214; in assay [2] (first compound 0.04 µM), 0.0691; in assay [2] (first compound 0.1265 µM), 0.0603. The relative viability in assay [2] (first compound 0.4 µM) is 0.0578; in assay [2] (first compound 1.265 µM) it was 0.0625; in assay [3] (first compound 0.04 µM), 0.595; in assay [3] (first compound 0.1265 µM), 0.932; in assay [3] (first compound 0.4 µM) it was 0.723; in assay [3] (first compound 1.265 µM), 0.328. For the same cell line, the relative viability in assay [4] (first compound 0.04 µM) was determined as 1.02; in assay [4] (first compound 0.1265 µM), 1.1; in assay [4] (first compound 0.4 µM), 0.831; in assay [4] (first compound 1.265 µM), 0.636; in assay [5] (first compound 0.04 µM), 0.676; in assay [5] (first compound 0.1265 µM), 0.703. Moreover, the relative viability came to 0.573 in assay [5] (first compound 0.4 µM) and 0.498 in assay [5] (first compound 1.265 µM).

Turning to NCI-H2405, the relative viability in assay [1] (first compound 0.04 µM) came out at 0.202; in assay [1] (first compound 0.1265 µM) it was 0.243; in assay [1] (first compound 0.4 µM), 0.232; in assay [1] (first compound 1.265 µM), 0.221; in assay [2] (first compound 0.04 µM) it was 0.762; in assay [2] (first compound 0.1265 µM), 0.976. The relative viability was found to be 0.868 in assay [2] (first compound 0.4 µM); 0.448 in assay [2] (first compound 1.265 µM); 1.01 in assay [3] (first compound 0.04 µM); 1.07 in assay [3] (first compound 0.1265 µM); 0.967 in assay [3] (first compound 0.4 µM); 0.761 in assay [3] (first compound 1.265 µM). The relative viability in assay [4] (first compound 0.04 µM) came out at 0.882; in assay [4] (first compound 0.1265 µM) it was 0.832; in assay [4] (first compound 0.4 µM) it was 0.765; in assay [4] (first compound 1.265 µM), 0.524; in assay [5] (first compound 0.04 µM), 0.688; in assay [5] (first compound 0.1265 µM), 0.75. In addition, the relative viability amounted to 0.689 in assay [5] (first compound 0.4 µM) and 0.571 in assay [5] (first compound 1.265 µM).

With H3255, the relative viability turned out to be 0.341 in assay [1] (first compound 0.04 µM); 0.473 in assay [1] (first compound 0.1265 µM); 0.408 in assay [1] (first compound 0.4 µM); 0.346 in assay [1] (first compound 1.265 µM); 0.514 in assay [2] (first compound 0.04 µM); 0.338 in assay [2] (first compound 0.1265 µM). Further, the relative viability was determined as 0.416 in assay [2] (first compound 0.4 µM); 0.26 in assay [2] (first compound 1.265 µM); 0.817 in assay [3] (first compound 0.04 µM); 0.803 in assay [3] (first compound 0.1265 µM); 0.794 in assay [3] (first compound 0.4 µM); 0.496 in assay [3] (first compound 1.265 µM). Besides, the relative viability in assay [4] (first compound 0.04 µM) was 0.515; in assay [4] (first compound 0.1265 µM), 0.527; in assay [4] (first compound 0.4 µM), 0.514; in assay [4] (first compound 1.265 µM), 0.381; in assay [5] (first compound 0.04 µM), 0.541; in assay [5] (first compound 0.1265 µM) it was 0.625. In addition, the results for the relative viability in assay [5] (first compound 0.4 µM) and in assay [5] (first compound 1.265 µM) were 0.63 and 0.456, respectively.

On to NCI-H460, for which the relative viability came out at 0.356 in assay [1] (first compound 0.04 µM); 0.546 in assay [1] (first compound 0.1265 µM); 0.452 in assay [1] (first compound 0.4 µM); 0.337 in assay [1] (first compound 1.265 µM); 1.15 in assay [2] (first compound 0.04 µM); 1.25 in assay [2] (first compound 0.1265 µM). Besides, the relative viability in assay [2] (first compound 0.4 µM) was determined as 1.11; in assay [2] (first compound 1.265 µM), 0.696; in assay [3] (first compound 0.04 µM), 1.05; in assay [3] (first compound 0.1265 µM), 1.05; in assay [3] (first compound 0.4 µM), 0.937; in assay [3] (first compound 1.265 µM) it was 0.654. For the same cell line, the relative viability in assay [4] (first compound 0.04 µM) stood at 0.402; in assay [4] (first compound 0.1265 µM), 0.386; in assay [4] (first compound 0.4 µM), 0.379; in assay [4] (first compound 1.265 µM), 0.32; in assay [5] (first compound 0.04 µM) it was 0.442; in assay [5] (first compound 0.1265 µM), 0.608. Moreover, the results for the relative viability in assay [5] (first compound 0.4 µM) and in assay [5] (first compound 1.265 µM) were 0.493 and 0.347, respectively.

On to NCI-H1975, for which the relative viability was found to be 0.304 in assay [1] (first compound 0.04 µM); 0.341 in assay [1] (first compound 0.1265 µM); 0.263 in assay [1] (first compound 0.4 µM); 0.294 in assay [1] (first compound 1.265 µM); 1.16 in assay [2] (first compound 0.04 µM); 1.32 in assay [2] (first compound 0.1265 µM). Also, the relative viability amounted to 0.91 in assay [2] (first compound 0.4 µM); 0.934 in assay [2] (first compound 1.265 µM); 0.889 in assay [3] (first compound 0.04 µM); 0.973 in assay [3] (first compound 0.1265 µM); 0.936 in assay [3] (first compound 0.4 µM); 0.789 in assay [3] (first compound 1.265 µM). Moreover, the relative viability came to 0.868 in assay [4] (first compound 0.04 µM); 0.877 in assay [4] (first compound 0.1265 µM); 0.718 in assay [4] (first compound 0.4 µM); 0.624 in assay [4] (first compound 1.265 µM); 0.375 in assay [5] (first compound 0.04 µM); 0.383 in assay [5] (first compound 0.1265 µM). Moreover, the values for the relative viability in assay [5] (first compound 0.4 µM) and in assay [5] (first compound 1.265 µM) were 0.351 and 0.365, respectively.
